From PubChem BioAssay (NCI) come the findings set out here.

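Grown in 96-well plates, cells were treated for 48 hours with each compound at five concentrations. Insufficient inhibition: endpoint recorded as highest concentration tested. Abbreviation: GI50, concentration required for 50% inhibition of growth. The concentration for full growth arrest is given as TGI.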

Among the test systems are HCT-116 colon; UACC-62 melanoma; SF-295 CNS; ACHN renal; RPMI-8226 leukemia; TK-10 renal; OVCAR-5 ovarian; SW-620 colon; MOLT-4 leukemia; SR leukemia.
Common to all, as to assay: growth of human tumour cells (NCI), 48 h

For `Cc1n[nH]c(=S)n1/N=C/c1ccc(F)c(Oc2ccccc2)c1`, the GI50 was 36 µM in the experiment with HCT-116 colon; 52400 nM with UACC-62 melanoma; 57800 nM with SF-295 CNS; greater than 100 µM in the experiment with ACHN renal; 42.7 µM with RPMI-8226 leukemia; 43.9 µM in the experiment with TK-10 renal. In addition, the GI50 is greater than 100 µM in the experiment with OVCAR-5 ovarian, 36.5 µM with SW-620 colon and 47.6 µM in the experiment with MOLT-4 leukemia. The TGI in the experiment on HCT-116 colon, with UACC-62 melanoma, in the experiment on SF-295 CNS, in the experiment with ACHN renal, in the experiment on RPMI-8226 leukemia and in the experiment on TK-10 renal was greater than 100 µM in each case. Moreover, the TGI with OVCAR-5 ovarian, with SW-620 colon and with MOLT-4 leukemia was greater than 100 µM each time.
For `Cc1oc2c(C)c(O)c3c(c2c1C1(C)OCCO1)C(=O)C=C(Cl)C3=O`, the TGI in the experiment with HCT-116 colon, with SF-295 CNS, with ACHN renal, in the experiment with RPMI-8226 leukemia, in the experiment on SR leukemia and in the experiment with TK-10 renal was greater than 100 µM each time. Further, the TGI in the experiment with OVCAR-5 ovarian, in the experiment on SW-620 colon and in the experiment with MOLT-4 leukemia was greater than 100 µM in each case.
`O=C(/C=C\c1cccc2ccccc12)c1cccs1`: the TGI in the experiment on HCT-116 colon was 10.7 µM; with UACC-62 melanoma it was 21.5 µM; in the experiment on SF-295 CNS, 34.6 µM; in the experiment on ACHN renal, 24.1 µM; with RPMI-8226 leukemia, 7.68 µM; with TK-10 renal, 33.2 µM. Also, the TGI with OVCAR-5 ovarian came to 32.8 µM; with SW-620 colon it was 2.99 µM; in the experiment on MOLT-4 leukemia, 35.8 µM.
As for `COC(=O)/C(C#N)=C1\CCC(O)N1C` (stereo not given), the TGI in the experiment with HCT-116 colon, in the experiment on UACC-62 melanoma, in the experiment on SF-295 CNS, in the experiment on ACHN renal, in the experiment on RPMI-8226 leukemia and in the experiment with TK-10 renal was greater than 100 µM in each case. The TGI with OVCAR-5 ovarian, in the experiment on SW-620 colon and in the experiment on MOLT-4 leukemia was greater than 100 µM in each case.
As for `O=C1OCc2c1cc(F)cc2[N+](=O)[O-]`, the GI50 in the experiment on HCT-116 colon was greater than 100 µM; with UACC-62 melanoma it was greater than 100000 nM; in the experiment on SF-295 CNS, greater than 100000 nM; in the experiment with ACHN renal, greater than 100 µM; in the experiment with RPMI-8226 leukemia, greater than 100 µM; in the experiment with SR leukemia, greater than 100000 nM. Besides, the GI50 in the experiment with OVCAR-5 ovarian, with SW-620 colon and in the experiment on MOLT-4 leukemia was greater than 100 µM in each case. The TGI with HCT-116 colon, in the experiment with UACC-62 melanoma, with SF-295 CNS, with ACHN renal, in the experiment on RPMI-8226 leukemia and in the experiment on SR leukemia was greater than 100 µM each time. Also, the TGI with OVCAR-5 ovarian, in the experiment on SW-620 colon and in the experiment on MOLT-4 leukemia was greater than 100 µM each time.
For the compound `N=C1N(c2ccccc2)C(=O)C23CCCC2C13N1CCOCC1` (stereo not given), the TGI with HCT-116 colon, in the experiment with UACC-62 melanoma, in the experiment on SF-295 CNS, in the experiment with ACHN renal, in the experiment on RPMI-8226 leukemia and in the experiment on SR leukemia was greater than 100 µM each time. The TGI with OVCAR-5 ovarian, in the experiment on SW-620 colon and with MOLT-4 leukemia was greater than 100 µM in each case.
Consider `C/C(CC(=O)NNc1ccc([N+](=O)[O-])cc1)=N\Nc1ccc([N+](=O)[O-])cc1`, for which the GI50 in the experiment on HCT-116 colon was 6.04 µM; in the experiment with UACC-62 melanoma, 1550 nM; with SF-295 CNS, 2960 nM; in the experiment with ACHN renal, 5.45 µM; in the experiment with RPMI-8226 leukemia, 7.91 µM; in the experiment on TK-10 renal, 13.4 µM. Besides, the GI50 with OVCAR-5 ovarian is 99.4 µM; with SW-620 colon, 3.84 µM; in the experiment on MOLT-4 leukemia, 6.45 µM. Besides, the TGI in the experiment on HCT-116 colon is 28.3 µM; in the experiment on UACC-62 melanoma it was 19 µM; with SF-295 CNS, 18.4 µM; with ACHN renal, greater than 100 µM; in the experiment on RPMI-8226 leukemia it was greater than 100 µM; in the experiment on TK-10 renal, 35 µM. Besides, the TGI in the experiment on OVCAR-5 ovarian, with SW-620 colon and in the experiment on MOLT-4 leukemia was greater than 100 µM each time.
`C=C1C(=O)O[C@H]2[C@H]1CC/C(COC(=O)CCCCCCCCC(=O)OC/C1=C/CC[C@@]3(C)O[C@H]3[C@H]3OC(=O)C(=C)[C@@H]3CC1)=C\CC[C@@]1(C)O[C@@H]21`: the GI50 in the experiment on UACC-62 melanoma is 1990 nM; in the experiment on SF-295 CNS it was 2560 nM; in the experiment with ACHN renal, 1.8 µM; with RPMI-8226 leukemia, 2.92 µM; with SR leukemia, 1390 nM; in the experiment on TK-10 renal, 2.47 µM. Further, the GI50 in the experiment on OVCAR-5 ovarian is 2.26 µM; with SW-620 colon, 1.87 µM; in the experiment on MOLT-4 leukemia, 2.58 µM. Moreover, the TGI in the experiment on UACC-62 melanoma was 4.25 µM; with SF-295 CNS, 8.09 µM; in the experiment with ACHN renal, 3.55 µM; in the experiment with RPMI-8226 leukemia it was 8.29 µM; in the experiment on SR leukemia, 11 µM; with TK-10 renal it was 4.74 µM. For the same compound, the TGI amounted to 5.56 µM with OVCAR-5 ovarian, 3.87 µM in the experiment on SW-620 colon and 13.7 µM with MOLT-4 leukemia.
Regarding `COC(=O)C1(C(=O)OC)CC2c3c(c4ccccc4n3C)CC(C1=O)N2Cc1ccccc1` (stereo not given), the TGI in the experiment with HCT-116 colon, in the experiment on UACC-62 melanoma, in the experiment with SF-295 CNS, in the experiment on ACHN renal, in the experiment with RPMI-8226 leukemia and in the experiment with TK-10 renal was greater than 100 µM each time. The TGI in the experiment with OVCAR-5 ovarian, with SW-620 colon and with MOLT-4 leukemia was greater than 100 µM each time.
On to `COc1ccc(C(c2ccc(C(C)C)cc(=O)c2O)c2ccc3cccnc3c2O)cc1` (stereo not given), for which the TGI in the experiment with HCT-116 colon worked out at 12.8 µM; in the experiment on UACC-62 melanoma, 4.63 µM; with SF-295 CNS it was 7.43 µM; with ACHN renal it was 7.53 µM; with RPMI-8226 leukemia, 23.6 µM; in the experiment with SR leukemia it was 15.9 µM. The TGI is 6.32 µM in the experiment on OVCAR-5 ovarian, 24.4 µM in the experiment on SW-620 colon and greater than 100 µM in the experiment with MOLT-4 leukemia.
With `COc1cc(-c2cc(=O)c3ccccc3o2)ccc1N`, the TGI with HCT-116 colon, in the experiment with UACC-62 melanoma, in the experiment on SF-295 CNS, with ACHN renal, with RPMI-8226 leukemia and in the experiment on TK-10 renal was greater than 100 µM in each case. Besides, the TGI in the experiment on OVCAR-5 ovarian, in the experiment on SW-620 colon and in the experiment with MOLT-4 leukemia was greater than 100 µM throughout.
